Reference: patent publication US20090170886A1 (Pfizer Inc, priority 2005, published 2009)

Molecular target: T1, androgen receptor in MDA-MB453-MMTV clone 54-19 cells (Homo sapiens, UniProt P10275)
T1 sequence (P10275 1-920 Q868H): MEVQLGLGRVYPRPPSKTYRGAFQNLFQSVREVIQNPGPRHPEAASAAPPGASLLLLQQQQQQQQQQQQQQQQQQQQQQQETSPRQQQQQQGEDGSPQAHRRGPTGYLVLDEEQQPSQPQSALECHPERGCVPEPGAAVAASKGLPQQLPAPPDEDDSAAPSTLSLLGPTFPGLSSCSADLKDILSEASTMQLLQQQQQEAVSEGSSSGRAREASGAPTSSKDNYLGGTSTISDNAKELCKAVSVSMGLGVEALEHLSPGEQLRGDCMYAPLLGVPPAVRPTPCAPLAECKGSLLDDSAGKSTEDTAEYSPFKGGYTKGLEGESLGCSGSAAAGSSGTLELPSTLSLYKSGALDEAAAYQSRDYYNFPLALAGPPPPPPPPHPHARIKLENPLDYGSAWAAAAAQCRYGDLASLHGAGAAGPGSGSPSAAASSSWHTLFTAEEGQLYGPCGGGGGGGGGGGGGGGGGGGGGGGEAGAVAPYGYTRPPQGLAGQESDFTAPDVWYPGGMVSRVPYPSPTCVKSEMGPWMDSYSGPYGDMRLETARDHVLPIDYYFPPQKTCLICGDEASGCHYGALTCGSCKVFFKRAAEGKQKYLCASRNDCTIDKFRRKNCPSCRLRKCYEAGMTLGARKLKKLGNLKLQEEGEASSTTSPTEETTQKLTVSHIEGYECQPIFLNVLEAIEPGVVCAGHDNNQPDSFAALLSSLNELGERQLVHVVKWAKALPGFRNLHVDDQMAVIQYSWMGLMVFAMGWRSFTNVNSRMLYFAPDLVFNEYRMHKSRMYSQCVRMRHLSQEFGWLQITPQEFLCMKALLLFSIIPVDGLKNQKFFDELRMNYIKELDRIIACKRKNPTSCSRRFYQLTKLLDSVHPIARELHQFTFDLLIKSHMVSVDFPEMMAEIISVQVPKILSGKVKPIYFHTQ
Test: AR Antagonist Cell Assay (MMTV-luciferase reporter, DHT-induced)
Format: cell-based
Conditions: MDA-MB453-MMTV clone 54-19, 100 pM DHT, 17 hr; mean of multiple tests
In short: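 MDA-MB453 cells stably carrying an ARE-containing MMTV-luciferase reporter, in phenol red-free medium with 1% charcoal-treated serum, preincubated 30 min with compound (0.32-1000 nM), then stimulated with 100 pM DHT for 17 h at 37 °C. Luminescence read; percent inhibition of DHT fold induction.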

SMILES | IC50 [nM]
CC(Oc1ccc(C#N)c(C(F)(F)F)c1)c1ccccc1 (racemic) [Example 1, 4-(1-Phenyl-ethoxy)-2-trifluoromethyl-benzonitrile] | 90
CCCC(Oc1ccc(C#N)c(C(F)(F)F)c1)c1cccc(O)c1 (racemic) [Example 14, 4-[1-(3-Hydroxyphenyl)butoxy]-2-(trifluoromethyl)benzonitrile] | 36
CCCC(Oc1ccc(C#N)c(C(F)(F)F)c1)c1cccc(O)c1 (single isomer, unassigned; (+)) [Example 15, (+)4-[1-(3-Hydroxyphenyl)butoxy]-2-(trifluoromethyl)benzonitrile] | 102
CC(C)CC(Oc1ccc(C#N)c(C(F)(F)F)c1)c1cccc(O)c1 (single isomer, unassigned; (+)) [Example 21, (+)4-[1-(3-Hydroxyphenyl)-3-methylbutoxy]-2-(trifluoromethyl)benzonitrile] | 79
CC(Oc1ccc(C#N)c(C(F)(F)F)c1)c1cncc(O)c1 (single isomer, unassigned; (+)) [Example 74, (+)4-[1-(5-Hydroxypyridin-3-yl)ethoxy]-2-(trifluoromethyl)benzonitrile] | 111
CC(Oc1ccc(C#N)c(C(F)(F)F)c1)c1cccc(O)c1 (single isomer, unassigned; (-)) [Example 9, (−)-4-[1-(3-Hydroxyphenyl)ethoxy]-2-(trifluoromethyl)benzonitrile] | 13
C=CCC(Oc1ccc(C#N)c(C(F)(F)F)c1)c1cccc(O)c1 (single isomer, unassigned; (-)) [Example 19, (−)4-{[1-(3-Hydroxyphenyl)but-3-enyl]oxy}-2-(trifluoromethyl)benzonitrile] | 34
N#Cc1ccc(OCc2cccc(O)c2)cc1C(F)(F)F [Example 6, 4-[(3-Hydroxybenzyl)oxy]-2-(trifluoromethyl)benzonitrile] | 6
CCC(Oc1ccc(C#N)c(C(F)(F)F)c1)c1ccccn1 (stereo not drawn) [Example 79, 4-(1-Pyridin^−2-yl-propoxy)-2-trifluoromethyl-benzonitrile] | 27.1
COc1cccc(C(C)Oc2ccc(C#N)c(C(F)(F)F)c2)n1 (stereo not drawn) [Example 80, 4-[1-(6-Methoxy-pyridin-2-yl)-ethoxy]-2-trifluoromethyl-benzonitrile] | 152
CC(C)CC(Oc1ccc(C#N)c(C(F)(F)F)c1)c1cccnc1 (stereo not drawn) [Example 88, 4-(3-Methyl-1-pyridin-3-yl-butoxy)-2-trifluoromethyl-benzonitrile] | 50
Cc1ccc(C(CC(C)C)Oc2ccc(C#N)c(C(F)(F)F)c2)cn1 (stereo not drawn) [Example 89, 4-[3-Methyl-1-(6-methyl-pyridin-3-yl)-butoxy]-2-trifluoromethyl-benzonitrile] | 56
